Results as given in patent publication US20230165252A1, “ACTIVE COMPOUND COMBINATIONS” (Bayer Aktiengesellschaft, priority 2020, published 2023).
Values joined by “and” are separate entries in the source; they are usually repeats but may differ in a detail not shown here. Equal values may be shown once.

Columns and labels:
Assay type in all cases: cell-based
[1] = test system: Ustilago segetum var. avenae; experiment: in vitro-Test with Ustilago segetum var. avenae (microtiter growth inhibition); details: compound alone
Procedure, shortened: (§1)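 Growth inhibition in potato dextrose broth inoculated with spores or mycelium, over solvent-evaporated compound films, was followed photometrically at 620 nm across 3-5 days at 20° C. Synergy for mixtures is claimed when observed efficacy exceeds the expected value E.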

Parastagonospora nodorum = experiment: in vitro-Test with Parastagonospora nodorum (microtiter growth inhibition)
Procedure, shortened: as §1

[2] = test system: Colletotrichum lindemuthianum; experiment: in vitro-Test with Colletotrichum lindemuthianum (microtiter growth inhibition); details: for inhibition of growth at 0.04 ppm: applied alone at 0.04 ppm
Experimental: The degree of efficacy expressed in % is denoted: 0% means an efficacy, which corresponds to that of the control, while an efficacy of 100% means that no disease is observed.
If the actual fungicidal activity exceeds the calculated value, then the activity of the combination is super-additive, i.e. a synergistic effect exists. In this case, the efficacy, which was actually observed, must be greater than the value for the expected efficacy (E), that was calculated from the abovementioned formula.
Example: In Vitro-Test with Fungal Microorganisms
Wells of 96-well microtiter plates are filled with 10 μl of a preparation of test compound or compound combination in methanol+emulsifier alkylaryl-polyglycol-ether. Thereafter, the solvent is evaporated in a hood. At the next step, 100 μl of liquid potato dextrose medium is given into each well, that has been amended with an appropriate concentration of spores or mycelium suspension of the test fungus.
With the aid of a photometer, the extinction in all wells is measured at the wavelength of 620 nm.
The microtiter plates are incubated at 20° C. and 85% relative humidity. The inhibition of growth is determined again photometrically 3-5 days after the application. Efficacy is calculated in relation to the untreated control, 0% efficacy means fungal growth as high as in untreated control while 100% efficacy means no fungal growth is measured.

Botrytis cinerea = experiment: in vitro-Test with Botrytis cinerea (microtiter growth inhibition); details: for inhibition of growth at 0.008 ppm: single active at 0.008 ppm; for inhibition of growth at 0.8 ppm: single active at 0.8 ppm; for Efficacy: applied alone
Procedure, shortened: as §1

Cercospora beticola = experiment: in vitro-Test with Cercospora beticola (microtiter growth inhibition)
Procedure, shortened: as §1

Alternaria alternate = experiment: in vitro-Test with Alternaria alternate (microtiter growth inhibition); details: Alternaria, alone, read-out: Efficacy %
Procedure, shortened: as §1

Cordana musae = experiment: in vitro-Test with Cordana musae (microtiter growth inhibition); details: Neocordana musae, single substance, read-out: Efficacy
Procedure, shortened: as §1

Diaporthe citri = experiment: in vitro-Test with Diaporthe citri (microtiter growth inhibition); details: Diaporthe citri, applied alone, read-out: Efficacy
Procedure, shortened: as §1

Fusarium culmorum = experiment: in vitro-Test with Fusarium culmorum (microtiter growth inhibition); details: Fusarium culmorum, read-out: Efficacy
Procedure, shortened: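 Compound or mixture, dried from methanol/emulsifier, overlaid with liquid potato dextrose medium carrying F. culmorum spores or mycelium; incubated at 20° C, 85% relative humidity. Growth measured as extinction at 620 nm 3-5 days after application, efficacy % relative to untreated control (0% = control growth, 100% = none). Synergy judged against calculated expected efficacy (E).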

[3] = Parastagonospora nodorum, compound alone, read-out: Efficacy %
[4] = Colletotrichum lindemuthianum, applied alone at 0.008 ppm, read-out: Efficacy %
[5] = Colletotrichum lindemuthianum, read-out: Efficacy %
[6] = Colletotrichum lindemuthianum, applied alone at 1.0 ppm, read-out: Efficacy %
[7] = Parastagonospora nodorum, compound alone, 1.0 ppm, read-out: Efficacy %
[8] = Colletotrichum lindemuthianum, applied alone at 0.2 ppm, read-out: Efficacy %
[9] = Botrytis cinerea, read-out: Efficacy %
[10] = Botrytis cinerea, single active at 0.2 ppm, read-out: Efficacy %
[11] = Colletotrichum lindemuthianum, applied alone at 4 ppm, read-out: Efficacy %
[12] = Colletotrichum lindemuthianum, applied alone at 20 ppm, read-out: Efficacy %

CC1COC(Cn2cncn2)(c2ccc(Oc3ccc(Cl)cc3)cc2Cl)O1 (stereo not shown) [(1.002) difenoconazole] showed an inhibition of growth at 0.008 ppm ([1]; 0.008 ppm, read-out: Efficacy %) of 14%, an inhibition of growth at 0.2 ppm ([1]; 0.2 ppm, read-out: Efficacy %) of 57% and an inhibition of growth at 0.04 ppm (Parastagonospora nodorum; [3]) of 16%. For the same molecule, the inhibition of growth at 0.2 ppm (Parastagonospora nodorum; [3]) was 83%, the Efficacy % (Parastagonospora nodorum; compound alone, 0.008 ppm) was 0% and the Efficacy % (Parastagonospora nodorum; compound alone, 1.0 ppm) was 97%. It also gave an inhibition of growth at 0.008 ppm [2, 4] of 2%, an inhibition of growth at 0.04 ppm [2, 5] of 13% and an inhibition of growth at 1 ppm [2, 6] of 13%.

CC(C)(C)C(O)(CCc1ccc(Cl)cc1)Cn1cncn1 (stereo not shown) [(1.021) tebuconazole] gave an inhibition of growth at 0.04 ppm (Parastagonospora nodorum; [3]) of 10%, an inhibition of growth at 0.2 ppm (Parastagonospora nodorum; [3]) of 79% and an inhibition of growth at 1 ppm (Parastagonospora nodorum; [7]) of 98%. For the same molecule, the inhibition of growth at 0.008 ppm [2, 4] was 7%, the inhibition of growth at 0.04 ppm [2, 5] was 20% and the inhibition of growth at 0.2 ppm [2, 8] was 2%. For the same molecule, the inhibition of growth at 1 ppm [2, 6] was 28%, the inhibition of growth at 0.008 ppm (Botrytis cinerea; [9]) was 2% and the inhibition of growth at 0.04 ppm (Botrytis cinerea; Botrytis cinerea, single active at 0.04 ppm, read-out: Efficacy %) was 5%. It also gave an inhibition of growth at 0.2 ppm (Botrytis cinerea; [10]) of 39%.

Work on O=C(NCCc1ncc(C(F)(F)F)cc1Cl)c1ccccc1C(F)(F)F [(2.005) fluopyram] yielded an inhibition of growth at 0.8 ppm (Parastagonospora nodorum; Parastagonospora nodorum, compound alone, 0.8 ppm, read-out: Efficacy %) of 32%, an inhibition of growth at 4 ppm (Parastagonospora nodorum; Parastagonospora nodorum, compound alone, 4 ppm, read-out: Efficacy %) of 41% and an inhibition of growth at 20 ppm (Parastagonospora nodorum; Parastagonospora nodorum, compound alone, 20 ppm, read-out: Efficacy %) of 65%. It also gave an inhibition of growth at 0.8 ppm ([2]; Colletotrichum lindemuthianum, applied alone at 0.8 ppm, read-out: Efficacy %) of 14%, an inhibition of growth at 4 ppm [2, 11] of 7% and an inhibition of growth at 20 ppm [2, 12] of 19%. For the same molecule, the inhibition of growth at 0.8 ppm (Botrytis cinerea; [9]) was 66% and the inhibition of growth at 4 ppm (Botrytis cinerea; Botrytis cinerea, single active at 4 ppm, read-out: Efficacy %) was 64%.

For CC(C)c1ccc(Cl)cc1CN(C(=O)c1c(C(F)F)nn(C)c1F)C1CC1 [(2.038) isoflucypram], the Efficacy % ([1]; 0.008 ppm) was 7%, the Efficacy % ([1]; 0.2 ppm) was 100% and 98% and the Efficacy % ([1]; 1.0 ppm) was 100%. For the same molecule, the Efficacy % ([2]; applied alone at 0.008 ppm) was 15% and 8%, the Efficacy % ([2]; applied alone at 1.0 ppm) was 5% and the Efficacy % (Botrytis cinerea; single active at 0.04 ppm) was 43% and 57%. The Efficacy % (Botrytis cinerea; single active at 0.2 ppm) was 63% and 75% and the Efficacy % (Botrytis cinerea; single active at 1.0 ppm) was 83% and 87%.

CON=C(C(=O)OC)c1ccccc1CON=C(C)c1cccc(C(F)(F)F)c1 [(3.020) trifloxystrobin] was tested, and the inhibition of growth at 0.2 ppm ([1]; 0.2 ppm, read-out: Efficacy %) was 53%, the inhibition of growth at 1 ppm ([1]; 1.0 ppm, read-out: Efficacy %) was 82% and the inhibition of growth at 0.008 ppm (Parastagonospora nodorum; Parastagonospora nodorum, compound alone, 0.008 ppm, read-out: Efficacy %) was 36%. The inhibition of growth at 0.04 ppm (Parastagonospora nodorum; [3]) was 61%, the inhibition of growth at 0.2 ppm (Parastagonospora nodorum; [3]) was 75% and the inhibition of growth at 1 ppm (Parastagonospora nodorum; [7]) was 83%. The inhibition of growth at 0.008 ppm [2, 4] was 27%, the inhibition of growth at 0.04 ppm [2, 5] was 56% and the inhibition of growth at 0.2 ppm [2, 8] was 78%. For the same molecule, the inhibition of growth at 1 ppm [2, 6] was 79%, the Efficacy % ([2]; applied alone at 0.2 ppm) was 77% and the inhibition of growth at 0.008 ppm (Botrytis cinerea; [9]) was 0%. The inhibition of growth at 0.2 ppm (Botrytis cinerea; [10]) was 3% and the inhibition of growth at 1 ppm (Botrytis cinerea; Botrytis cinerea, single active at 1.0 ppm, read-out: Efficacy %) was 14%.

Molecule CCO[PH](=O)[O-].CCO[PH](=O)[O-].CCO[PH](=O)[O-].[Al+3] [(15.012) fosetyl-aluminium] has an Efficacy % (Parastagonospora nodorum; compound alone, 0.8 ppm) of 0%, an Efficacy % (Parastagonospora nodorum; compound alone, 4 ppm) of 2% and an Efficacy % ([2]; applied alone at 0.8 ppm) of 0%. The Efficacy % ([2]; applied alone at 4 ppm) was 7%, the Efficacy % ([2]; applied alone at 20 ppm) was 0% and the Efficacy % ([2]; applied alone at 100 ppm) was 53%. For the same molecule, the Efficacy % (Cercospora beticola; applied alone at 0.8 ppm) was 0%, the Efficacy % (Cercospora beticola; applied alone at 4 ppm) was 0% and the Efficacy % (Cercospora beticola; applied alone at 20 ppm) was 4%. It also gave an Efficacy % (Cercospora beticola; applied alone at 100 ppm) of 15%.

In the case of COc1cc(C)c(C(=O)c2c(OC)ccc(Br)c2C)c(OC)c1OC [(15.016) metrafenone], the inhibition of growth at 4 ppm [2, 11] is reported as 15%, the inhibition of growth at 20 ppm [2, 12] is reported as 10% and the inhibition of growth at 0.8 ppm (Cercospora beticola; Cercospora beticola, applied alone at 0.8 ppm, read-out: Efficacy %) is reported as 0%. The inhibition of growth at 4 ppm (Cercospora beticola; Cercospora beticola, applied alone at 4 ppm, read-out: Efficacy %) was 13% and the inhibition of growth at 0.8 ppm (Botrytis cinerea; [9]) was 0%.

Work on Cc1ccc(C(F)(F)CNC(=O)c2c(Oc3cccc(C4CC4)c3F)nnc(Cl)c2C)c(C)c1 [Compound I-655, 6-chloro-3-(3-cyclopropyl-2-fluorophenoxy)-N-[2-(2,4-dimethylphenyl)-2,2-difluoroethyl]-5-methylpyridazine-4-carboxamide] yielded an inhibition of growth at 0.004 ppm (Alternaria alternate; 0.004 ppm) of 0%, an inhibition of growth at 0.02 ppm (Alternaria alternate; 0.02 ppm) of 0% and an inhibition of growth at 0.1 ppm (Alternaria alternate; 0.1 ppm) of 20%. The inhibition of growth at 0.5 ppm (Alternaria alternate; 0.5 ppm) was 100%, the inhibition of growth at 0.004 ppm (Cordana musae; 0.004 ppm) was 2% and the inhibition of growth at 0.02 ppm (Cordana musae; 0.020 ppm) was 4%. The inhibition of growth at 0.1 ppm (Cordana musae; 0.1 ppm) was 100%, the inhibition of growth at 0.5 ppm (Cordana musae; 0.5 ppm) was 100% and the inhibition of growth at 0.004 ppm ([1]; 0.004 ppm, read-out: Efficacy %) was 7%. For the same molecule, the inhibition of growth at 0.02 ppm ([1]; 0.020 ppm, read-out: Efficacy %) was 6%, the inhibition of growth at 0.1 ppm ([1]; 0.1 ppm, read-out: Efficacy %) was 0% and the inhibition of growth at 0.5 ppm ([1]; 0.5 ppm, read-out: Efficacy %) was 0%. For the same molecule, the Efficacy (Parastagonospora nodorum; 0.004 ppm) was 0%, the Efficacy (Parastagonospora nodorum; 0.020 ppm) was 0% and the Efficacy (Parastagonospora nodorum; 0.1 ppm) was 41%. The Efficacy (Parastagonospora nodorum; 0.5 ppm) was 100%, the inhibition of growth at 0.004 ppm (Parastagonospora nodorum; Parastagonospora nodorum, compound alone, 0.004 ppm, read-out: Efficacy %) was 0% and the inhibition of growth at 0.02 ppm (Parastagonospora nodorum; Parastagonospora nodorum, compound alone, 0.020 ppm, read-out: Efficacy %) was 0%. The inhibition of growth at 0.1 ppm (Parastagonospora nodorum; Parastagonospora nodorum, compound alone, 0.1 ppm, read-out: Efficacy %) was 41%, the inhibition of growth at 0.5 ppm (Parastagonospora nodorum; Parastagonospora nodorum, compound alone, 0.5 ppm, read-out: Efficacy %) was 100% and the inhibition of growth at 0.004 ppm (Diaporthe citri; 0.004 ppm) was 0%. The inhibition of growth at 0.02 ppm (Diaporthe citri; 0.020 ppm) was 0%, the inhibition of growth at 0.1 ppm (Diaporthe citri; 0.1 ppm) was 13% and the inhibition of growth at 0.5 ppm (Diaporthe citri; 0.5 ppm) was 100%. It also gave an inhibition of growth at 0.004 ppm (Fusarium culmorum; 0.004 ppm) of 0%, an inhibition of growth at 0.02 ppm (Fusarium culmorum; 0.020 ppm) of 7% and an inhibition of growth at 0.1 ppm (Fusarium culmorum; 0.1 ppm) of 7%. It also gave an inhibition of growth at 0.5 ppm (Fusarium culmorum; 0.5 ppm) of 19%, an inhibition of growth at 0.004 ppm ([2]; Colletotrichum lindemuthianum, applied alone at 0.004 ppm, read-out: Efficacy %) of 0% and an inhibition of growth at 0.02 ppm ([2]; Colletotrichum lindemuthianum, applied alone at 0.020 ppm, read-out: Efficacy %) of 20%. The inhibition of growth at 0.1 ppm ([2]; Colletotrichum lindemuthianum, applied alone at 0.1 ppm, read-out: Efficacy %) was 98%, the inhibition of growth at 0.5 ppm ([2]; Colletotrichum lindemuthianum, applied alone at 0.5 ppm, read-out: Efficacy %) was 100% and the Efficacy (Botrytis cinerea; 0.004 ppm) was 0%. The Efficacy (Botrytis cinerea; 0.020 ppm) was 0%, the Efficacy (Botrytis cinerea; 0.1 ppm) was 58% and the Efficacy (Botrytis cinerea; 0.5 ppm) was 100%.
